Results reported in patent US20140330261A1, “CATHETER FOR PERFORMING PHOTODYNAMIC ABLATION OF CARDIAC MUSCLE TISSUE VIA PHOTOCHEMICAL REACTION” (KEIO UNIVERSITY, priority 2010, published 2014).

How the values were obtained:
[1] = system: cardiac muscle tissue of the left auricle; test: Acute experiment (open-heart surgery) using swine: verification of immediate conduction block by photodynamic therapy; assay type: in vivo; settings: 10 mg/kg intravenously, irradiation 30 minutes after administration, 663 nm, 5.2 W/cm^2, 208 J/cm^2, irradiation line approximately 30 mm
Description: Left auricular tissue obtained from a swine (body weight: 15.4 kg) was used as a sample. Talaporfin sodium was used as a photosensitive dye, and it was administered intravenously to the swine at 10 mg/kg of the body weight. The duration until light irradiation after the administration of the photosensitive dye was 30 minutes. Light irradiation was carried out using a semiconductor laser with a central wavelength of 663 nm at a power density of 5.2 W/cm^2, an energy density of 208 J/cm^2, and a spot size of 7 mm Φ. The experiment for verification of immediate conduction block using swine was carried out in accordance with the following procedure. 1. A swine was subjected to open-heart surgery under deep anesthesia and the left auricle was exposed. 2. Three bipolar electrodes were positioned in cardiac muscle tissue of the left auricle. One such electrode was used for electrical stimulation (for conductance) and the two other electrodes were used for potential measurement (A and B). 3. Talaporfin sodium was administered intravenously at 10 mg/kg. 4. The irradiation with a band-like laser beam was carried out in a dotted manner between electrodes for potential measurement 30 minutes after administration to perform photodynamic therapy. 5. The potential of an electrode for potential measurement B was measured during laser beam irradiation. 6. […]

[2] = system: right ventricular tissue isolated from a Wistar rat; test: Electrical conduction blocking via photodynamic therapy in cardiac muscle tissue extirpated from a rat (ex vivo); settings: 4.3 μg/ml in Tyrode's perfusion fluid for 2 hours; 670.8 nm laser, 150 mW/cm^2, 3.5 J/cm^2; 5 minutes after photodynamic therapy
Description: The right ventricular tissue isolated from a Wistar rat was used as a sample. Talaporfin sodium was used as a photosensitive pigment. Talaporfin sodium was dissolved in a perfusion fluid at 4.3 μg/ml. Tyrode's solutions were used as perfusion fluids ([…] 37° C.). A semiconductor laser with a central wavelength of 670.8 nm was used as an excitation light source, and the irradiation was carried out at 150 mW/cm^2 and 3.5 J/cm^2. An experiment of electric conduction blocking in the cardiac muscle was carried out by the following procedures. 1. The heart was extirpated under deep anesthesia and the right ventricular wall was excised. 2. The excised tissue was subjected to perfusion in a Tyrode's solution comprising talaporfin sodium dissolved therein for 2 hours. 3. Three bipolar electrodes were positioned in cardiac muscle tissue. One such electrode was used for electrical stimulation (for conductance) and the two other electrodes were used for potential measurement (A and B). 4. A band-like laser beam was irradiated to the region between electrodes for potential measurement to perform photodynamic therapy. 5. Potentials at the electrodes for potential measurement A and B were measured during laser irradiation.

C=Cc1c(C)c2cc3nc(c(CC(=O)N[C@@H](CC(=O)O)C(=O)O)c4[nH]c(cc5nc(cc1[nH]2)C(C)=C5CC)c(C)c4C(=O)O)[C@@H](CCC(=O)O)[C@@H]3C [Talaporfin sodium, talaporfin sodium]
delay of electric conduction at electrode B after light irradiation [1]: approximately 35.5 ms
electric conductivity of cardiac muscle tissue at the site irradiated with light after photodynamic therapy [2]: electric conductivity of cardiac muscle tissue was lost
